Non-standard residues stand in square brackets, D forms with d.
System: αvβ6 integrin
Assay: Integrin inhibition assay (ELISA): inhibition of αvβ6 integrin binding to LAP (TGF-β1)
Parameters: species or system human
Details: 1 µM peptide preincubated 1 h at room temperature with 10 nM integrin αvβ6, 1.0 mM Mn2+, plate coated with 10 nM LAP (TGF-β1), absorbance at 490 nm, mean ± standard error, N = 3, numbers only in Figure 8, text gives comparisons in words
Description: Among the RGD-binding integrins, we selected αvβ6 integrin for measurement of the inhibition activity of the cyclic peptides. The αvβ6 integrin is reported to recognize the sequence beyond the RGD motif, RGDLXXL ([Dong et al., 2014]). Therefore, the inhibition activity of the cyclic peptides is expected to vary depending on the configuration and the modification at the CPC moiety. In addition, the inhibitor of the αvβ6 integrin is still under development ([John et al., 2020]), while an efficient inhibitor, cilengitide, exists for the αvβ3 and αvβ5 integrins ([Stupp and Ruegg, 2007]). […] The inhibitory activity of the commonly used RGD tripeptide was also measured as a control. […]
The integrin inhibition assay was performed as follows. […] The bound αvβ6 integrin was detected by the biotinylated anti-Velcro polyclonal antibody and horseradish peroxidase-conjugated streptavidin. […] The bound antibody was detected by horseradish peroxidase-conjugated streptavidin (0.53 μg/mL), followed by colorimetrically measuring the amount of bound αvβ6 integrin using o-phenylenediamine (0.4 mg/mL; FUJIFILM Wako) and H2O2 (0.006%) in a 25 mM citric acid/50 mM Na2HPO4 buffer. The colorimetric reaction was stopped with 100 μL of 2.5 M H2SO4, and the absorbance of the chromogenic substrate was measured at 490 nm using a microplate reader (Molecular Devices EMax). […]

Row | Substance | Inhibitory activity for binding of the αvβ6 integrin with LAP (TGF-β1)
1 | cyclo(CRGDC[dP]) (cysteine pairing not given here) [3a] | stronger than 3c and 3d
2 | cyclo([dC]RGDC[dP]) (cysteine pairing not given here) [3b] | stronger than 3c and 3d

Reference: article PMC11169864, “Application of cysteinyl prolyl ester for the synthesis of cyclic peptides containing an RGD sequence and their biological activity measurement” (Frontiers in Chemistry, 2024)
